Several values for one entry are separate records, joined by “and”; a condition that tells them apart may be missing. Equal values may be shown once. Inconclusive results and toxic doses are left out. Rule for the calls: active = survival T/C of 150% or more; inactive = T/C below 125% in these data.
Test system: CD2F1 mice, L1210 leukemia ip, survival T/C
Assay: NCI In Vivo Anticancer Drug Screen. Data for tumor model L1210 Leukemia (intraperitoneal) in CD2F1 (CDF1) mice
Conditions: higher = longer survival
Outline: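 Implant tumor; dose compound or vehicle; measure endpoint in both groups; report treated divided by control.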

[1] = endpoint: mean survival time, dose: 100.0 mg/kg/injection, schedule: Q01DX009 (ip), vehicle: saline with Tween-80
[2] = endpoint: mean survival time, dose: 100.0 mg/kg/injection, schedule: Q04DX003 (ip), vehicle: saline with Tween-80
[3] = endpoint: mean survival time, dose: 100.0 mg/kg/injection, schedule: Q01DX001 (ip), vehicle: saline
[4] = endpoint: mean survival time, dose: 200.0 mg/kg/injection, schedule: Q04DX003 (ip), vehicle: saline with Tween-80
[5] = endpoint: mean survival time, dose: 400.0 mg/kg/injection, schedule: Q04DX003 (ip), vehicle: saline with Tween-80
[6] = endpoint: mean survival time, dose: 100.0 mg/kg/injection, schedule: Q01DX001 (ip), vehicle: saline with Tween-80
[7] = endpoint: mean survival time, dose: 200.0 mg/kg/injection, schedule: Q01DX001 (ip), vehicle: saline with Tween-80
[8] = endpoint: mean survival time, dose: 400.0 mg/kg/injection, schedule: Q01DX001 (ip), vehicle: saline with Tween-80
[9] = endpoint: mean survival time, dose: 100.0 mg/kg/injection, schedule: Q04DX003 (ip), vehicle: Klucel (hydroxypropylcellulose) (HPC)
[10] = endpoint: mean survival time, dose: 200.0 mg/kg/injection, schedule: Q04DX003 (ip), vehicle: Klucel (hydroxypropylcellulose) (HPC)
[11] = endpoint: mean survival time, dose: 400.0 mg/kg/injection, schedule: Q04DX003 (ip), vehicle: Klucel (hydroxypropylcellulose) (HPC)
[12] = endpoint: mean survival time, dose: 100.0 mg/kg/injection, schedule: Q01DX009 (ip), vehicle: saline
[13] = endpoint: mean survival time, dose: 200.0 mg/kg/injection, schedule: Q01DX009 (ip), vehicle: saline
[14] = endpoint: mean survival time, dose: 400.0 mg/kg/injection, schedule: Q01DX009 (ip), vehicle: saline
[15] = endpoint: mean survival time, dose: 100.0 mg/kg/injection, schedule: Q04DX003 (ip), vehicle: saline
[16] = endpoint: mean survival time, dose: 200.0 mg/kg/injection, schedule: Q04DX003 (ip), vehicle: saline
[17] = endpoint: mean survival time, dose: 400.0 mg/kg/injection, schedule: Q04DX003 (ip), vehicle: saline

Measured: T/C

CC(C)=CCN1C(=O)c2ccccc2C1=O
inactive: endpoint: mean survival time, dose: 25.0 mg/kg/injection, schedule: Q01DX009 (ip), vehicle: saline with Tween-80 102 % of control | endpoint: mean survival time, dose: 25.0 mg/kg/injection, schedule: Q04DX003 (ip), vehicle: saline with Tween-80 101 % of control | endpoint: mean survival time, dose: 50.0 mg/kg/injection, schedule: Q01DX009 (ip), vehicle: saline with Tween-80 98 % of control | endpoint: mean survival time, dose: 50.0 mg/kg/injection, schedule: Q04DX003 (ip), vehicle: saline with Tween-80 101 % of control | [1] 96 % of control | [2] 110 % of control

CC(=O)C(C)(c1ccccc1)N(Cc1ccccc1)C(=O)c1ccccc1 (stereo not drawn)
inactive: [3] 96 % of control | endpoint: mean survival time, dose: 200.0 mg/kg/injection, schedule: Q01DX001 (ip), vehicle: saline 98 % of control | endpoint: mean survival time, dose: 400.0 mg/kg/injection, schedule: Q01DX001 (ip), vehicle: saline 96 % of control

Cc1ccc(S(=O)(=O)N2CCC(C(=O)O)(c3ccccc3)CC2)cc1
inactive: [2] 113 % of control | [4] 98 % of control | [5] 95 % of control

CC(=O)NC(C)(C)Cc1ccccc1
inactive: [6] 101 % of control | [7] 117 % of control | [8] 106 % of control

CC(=O)c1cccc(OCc2ccccc2)c1
inactive: endpoint: mean survival time, dose: 100.0 mg/kg/injection, schedule: Q04DX003 (ip), vehicle: other 96 % of control | endpoint: mean survival time, dose: 200.0 mg/kg/injection, schedule: Q04DX003 (ip), vehicle: other 96 % of control

CCOC(=O)c1cc(C[N+](C)(C)C)oc1C
inactive: endpoint: mean survival time, dose: 25.0 mg/kg/injection, schedule: Q01DX001 (ip), vehicle: saline 96 % of control | endpoint: mean survival time, dose: 50.0 mg/kg/injection, schedule: Q01DX001 (ip), vehicle: saline 102 % of control | [6] 106 % of control | [3] 98 % of control

NC(=O)c1[nH]nc(C2OC(COP(=O)(O)O)C(O)C2O)c1O (stereo not drawn)
inactive: endpoint: median survival time, dose: 6.25 mg/kg/injection, schedule: Q01DX005 (ip), vehicle: saline 122 % of control | endpoint: median survival time, dose: 12.5 mg/kg/injection, schedule: Q01DX005 (ip), vehicle: saline 93 % of control | endpoint: median survival time, dose: 25.0 mg/kg/injection, schedule: Q01DX005 (ip), vehicle: saline 93 % of control

COc1cc(N=Nc2ccc(C(=O)O)cc2)ccc1N(CCCl)CCCl
inactive: endpoint: mean survival time, dose: 25.0 mg/kg/injection, schedule: Q04DX003 (ip), vehicle: Klucel (hydroxypropylcellulose) (HPC) 106 % of control and 109 % of control | endpoint: mean survival time, dose: 50.0 mg/kg/injection, schedule: Q04DX003 (ip), vehicle: Klucel (hydroxypropylcellulose) (HPC) 106 % of control and 112 % of control | [9] 113 % of control and 98 % of control

CC(C)N1CCc2cc3c(cc2C1)OCO3
inactive: endpoint: mean survival time, dose: 75.0 mg/kg/injection, schedule: Q01DX001 (ip), vehicle: saline 100 % of control | [3] 100 % of control

O=[N+]([O-])c1cc(Cl)ccc1Nc1ccccc1
inactive: [9] 102 % of control | [10] 102 % of control | [11] 98 % of control

O=c1[nH]c(=S)[nH]c(-c2ccc(Cl)cc2)c1CCO
inactive: [2] 94 % of control | [4] 92 % of control | [5] 90 % of control

O=C(O)CP(=O)(O)O
inactive: endpoint: mean survival time, dose: 4.0 mg/kg/injection, schedule: Q01DX009 (ip), vehicle: saline 98 % of control | endpoint: mean survival time, dose: 8.0 mg/kg/injection, schedule: Q01DX009 (ip), vehicle: saline 96 % of control | endpoint: mean survival time, dose: 16.0 mg/kg/injection, schedule: Q01DX009 (ip), vehicle: saline 104 % of control | endpoint: mean survival time, dose: 32.0 mg/kg/injection, schedule: Q01DX009 (ip), vehicle: saline 98 % of control | endpoint: mean survival time, dose: 37.5 mg/kg/injection, schedule: Q01DX009 (ip), vehicle: saline 91 % of control | endpoint: mean survival time, dose: 50.0 mg/kg/injection, schedule: Q01DX009 (ip), vehicle: saline 95 % of control and 103 % of control | endpoint: mean survival time, dose: 64.0 mg/kg/injection, schedule: Q01DX009 (ip), vehicle: saline 103 % of control | endpoint: mean survival time, dose: 75.0 mg/kg/injection, schedule: Q01DX009 (ip), vehicle: saline 102 % of control | [12] 98 % of control and 102 % of control | endpoint: mean survival time, dose: 128.0 mg/kg/injection, schedule: Q01DX009 (ip), vehicle: saline 86 % of control | endpoint: mean survival time, dose: 150.0 mg/kg/injection, schedule: Q01DX009 (ip), vehicle: saline 100 % of control | [13] 97 % of control and 102 % of control | [14] 98 % of control and 101 % of control | endpoint: mean survival time, dose: 800.0 mg/kg/injection, schedule: Q01DX009 (ip), vehicle: saline 93 % of control and 103 % of control

COC(C)(C)O/N=C(\C[n+]1ccccc1)c1ccccc1
inactive: endpoint: mean survival time, dose: 12.5 mg/kg/injection, schedule: Q01DX009 (ip), vehicle: water 95 % of control | endpoint: mean survival time, dose: 25.0 mg/kg/injection, schedule: Q01DX009 (ip), vehicle: water 91 % of control | endpoint: mean survival time, dose: 50.0 mg/kg/injection, schedule: Q01DX009 (ip), vehicle: water 90 % of control

COc1ccc2c(c1)c(C(=O)O)cc(=O)n2C
inactive: endpoint: mean survival time, dose: 100.0 mg/kg/injection, schedule: Q01DX009 (ip), vehicle: saline sonified 101 % of control | [2] 97 % of control | endpoint: mean survival time, dose: 200.0 mg/kg/injection, schedule: Q01DX009 (ip), vehicle: saline sonified 95 % of control | [4] 102 % of control | endpoint: mean survival time, dose: 400.0 mg/kg/injection, schedule: Q01DX009 (ip), vehicle: saline sonified 95 % of control | [5] 96 % of control

CCCCCCCCC1SC1CCCCCCCCOC(=O)CCCCCCCC1SC1CCCCCCCC (stereo not drawn)
inactive: [9] 95 % of control | [10] 93 % of control | [11] 102 % of control

O=C(C(=C(c1ccccc1)c1ccccc1)c1ccccc1)c1ccccc1
inactive: endpoint: mean survival time, dose: 100.0 mg/kg/injection, schedule: Q04DX002 (ip), vehicle: saline with Tween-80 93 % of control | endpoint: mean survival time, dose: 200.0 mg/kg/injection, schedule: Q04DX002 (ip), vehicle: saline with Tween-80 96 % of control | endpoint: mean survival time, dose: 400.0 mg/kg/injection, schedule: Q04DX002 (ip), vehicle: saline with Tween-80 93 % of control

O=C(Nc1cccc2ccccc12)SCc1ccccc1
inactive: endpoint: mean survival time, dose: 50.0 mg/kg/injection, schedule: Q04DX002 (ip), vehicle: Klucel (hydroxypropylcellulose) (HPC) 88 % of control | endpoint: mean survival time, dose: 100.0 mg/kg/injection, schedule: Q04DX002 (ip), vehicle: Klucel (hydroxypropylcellulose) (HPC) 106 % of control | endpoint: mean survival time, dose: 200.0 mg/kg/injection, schedule: Q04DX002 (ip), vehicle: Klucel (hydroxypropylcellulose) (HPC) 95 % of control

Nc1nc2c(c(=O)[nH]1)N1C(=O)N(c3ccc(C(=O)NC(CCC(=O)O)C(=O)O)cc3)CC1CN2 (stereo not drawn)
inactive: endpoint: mean survival time, dose: 100.0 mg/kg/injection, schedule: Q01DX001 (ip), vehicle: sodium bicarbonate 107 % of control | endpoint: mean survival time, dose: 200.0 mg/kg/injection, schedule: Q01DX001 (ip), vehicle: sodium bicarbonate 113 % of control | endpoint: mean survival time, dose: 400.0 mg/kg/injection, schedule: Q01DX001 (ip), vehicle: sodium bicarbonate 109 % of control

CC1(C)CN(c2ccccc2)N(CN2CCOCC2)C1=O
inactive: endpoint: mean survival time, dose: 12.5 mg/kg/injection, schedule: Q01DX009 (ip), vehicle: Klucel (hydroxypropylcellulose) (HPC) 89 % of control

O=C(O)c1cccc2ccc(F)cc12
inactive: endpoint: median survival time, dose: 50.0 mg/kg/injection, schedule: Q04DX002 (ip), vehicle: saline with Tween-80 100 % of control | endpoint: median survival time, dose: 100.0 mg/kg/injection, schedule: Q04DX002 (ip), vehicle: saline with Tween-80 100 % of control | endpoint: median survival time, dose: 200.0 mg/kg/injection, schedule: Q04DX002 (ip), vehicle: saline with Tween-80 100 % of control | endpoint: median survival time, dose: 400.0 mg/kg/injection, schedule: Q04DX002 (ip), vehicle: saline with Tween-80 88 % of control

CCCCCCCCCCOCCCCCCCCCC
inactive: [12] 95 % of control | [15] 94 % of control | [13] 98 % of control | [16] 101 % of control | [14] 97 % of control | [17] 94 % of control

CC(=O)SCCNCCOCCC#N
inactive: [1] 97 % of control | [15] 95 % of control | endpoint: mean survival time, dose: 200.0 mg/kg/injection, schedule: Q01DX009 (ip), vehicle: saline with Tween-80 101 % of control | [16] 101 % of control | endpoint: mean survival time, dose: 400.0 mg/kg/injection, schedule: Q01DX009 (ip), vehicle: saline with Tween-80 95 % of control | [17] 101 % of control

C=C/C(C)=N/Nc1ccc([N+](=O)[O-])cc1[N+](=O)[O-]
inactive: [2] 94 % of control | [4] 95 % of control | [5] 95 % of control

O=c1c2ccccc2sc2ccc3c(ccc4sc5ccccc5c(=O)c43)c12
inactive: [6] 93 % of control | [7] 100 % of control | [8] 92 % of control
